Measurements reported in ChEMBL document CHEMBL1148086, “Isolation of the furan fatty acid, (8Z,11Z,14Z,17Z)-3,6-epoxyeicos-3,5,8,11,14,17-hexenoic acid from the New Zealand sponge Hymeniacidon hauraki” (J Nat Prod, 1994).
≈ marks a conversion by molar mass, not a printed value. Calls of active or inactive are those of the source. The calls are words filed in the database; no cut-off is given here.

Columns and labels:
Poliovirus 1 = test: Antiviral activity against Polio virus type 1 in african green monkey BSC1 cells after 24 hrs; assay type: functional, organism-based
[1] = Cytotoxicity against african green monkey BSC1 cells after 24 hrs; assay type: cell-based; conditions: chlorocebus aethiops, bsc-1, 24 h
P388 = test: Cytotoxicity against mouse P388 cells after 48 hrs by SRB assay; assay type: functional, cell-based
Human alphaherpesvirus 1 = test: Antiviral activity against Herpes simplex virus type 1 in african green monkey BSC1 cells after 24 hrs; assay type: functional, organism-based

SMILES: CC/C=C\C/C=C\C/C=C\C/C=C\Cc1ccc(CC(=O)O)o1
- Activity (Poliovirus 1; BSC-1): Active
- Activity [1]: 2 mm
- IC50 (P388; Mus musculus, P388, 48 h, read-out: IC50): 13.4 µg/mL (≈ 42.6 µM)
- Activity (Human alphaherpesvirus 1; BSC-1): Active

SMILES: CC/C=C\C/C=C\C/C=C\C/C=C\Cc1ccc(CC(=O)OC)o1
- IC50 (Poliovirus 1; bsc-1): Not Active
- Activity [1]: Not Active
- IC50 (P388; p388): Not Active
- IC50 (Human alphaherpesvirus 1; bsc-1): Not Active
